Experiments:
rats = assay: Behavioral assay, stereotyped behavior in rats; assay type: in vivo, Male Sprague-Dawley rats; conditions: for Stereotyped Behavior ED50: i.c.v., at time of maximal behavioral effect, parentheses: 95% confidence intervals
Method: Compound No. 1 was tested in comparison with PCP and TCP by an in vivo assay which determined stereotypic behavior in rats treated with the compounds. Male Sprague-Dawley rats weighing 200 to 250 g were used in the behavioral experiments. Each rat was used only once. Rats were anesthetized lightly with ether before a 20-gauge needle was used to make a hole in the rat's skull for i.c.v. injection of drugs at a later date. The rats were allowed to recover for at least 1 day before being used in the behavioral assays. On the day of the experiment, rats were placed individually into plastic rat cages and allowed at least 1 hr to acclimate before testing. Drugs were administered to rats in a random, single-blind fashion. Behavioral ratings were taken at 5-min intervals up to 1 hr after drug administration i.c.v. using the PCP rating scale as described by Sturgeon et al [Sturgeon, R. D., Fessler, R. G. and Meltzer, H. Y., "Behavioral Rating Scales for Accessing Phencyclidine-Induced Locomotor Activity, Stereotyped Behavior And Ataxia In Rats", European J. Pharmacol. 59 169, (1970)].
Dose-response curves for each treatment were determined at the time of maximal behavioral effect. Peak effects were found 5 min after i.c.v. administration of PCP (25-20000 nmol/rat). […] A rating of 5 in the PCP-rating scale was considered as complete stereotyped behavior, that is, a 100% response. At least 21 rats (at least seven rats/dose) were used to determine each dose-response curve and EDso values. ED50 values and dose-response curves were evaluated using a computerized Finney assay [Statistical Methods In Biological Assays, 2nd Edn., Hatner Pub. Co., New York (1964)].
The ability of the tested compounds to induce stereotyped behavior was assessed at 2.5, 5 and 10 minutes and thereafter every 5 min up to 1 hr after i.c.v., i.p., or s.c. administration.

PCP receptors = assay: Radioreceptor assay, displacement of 3H-TCP from rat brain membranes; conditions: read-out: Ki apparent; units + SEM; 1 nM 3H-TCP, whole rat brain membranes, 1 hour incubation
NMA = assay: NMDA/KA antagonist assay in embryo retina: blocking NMA neurotoxicity; design: species or system chick embryo; conditions: NMA 200 μM, 30 min, 37° C.
Method: (§1) A 15-day old chick embryo retina, incubated for 30 min. in a balanced salt solution (BSS) containing 1 mM Glu, developed a full lesion characteristic of an immature mouse retina following s.c. administration of Glu. Other excitotoxin agonists also produce acute lesions within 30 min., each agent being effective at a concentration proportional to its known excitatory and toxic potencies. The pattern of cellular degeneration is restricted in each case to the ganglion cell, inner plexiform and inner nuclear layers, but within these areas certain agonists induce different patterns of degeneration, the differences being most pronounced between NMA and KA. Four agonists were employed in the present test, each at a concentration established previously to be the lowest concentration required to consistently cause a fully-developed retinal lesion: KA (25 μM), Quis (50 μM), NMA (200 μM) and Glu (1000 μM). Compound No. 1 and other PCP-like compounds were tested at various concentrations for their ability to prevent KA, Quis, NMA or Glu neurotoxicity. […] Internal controls in each experiment consisted of at least six specimens being incubated with agonist alone. A typical toxic reaction had to be present in all controls and absent from all experimental specimens in order to qualify as a blocking effect. The method of tissue preparation was as follows: 15-day old chick embryos were decapitated and their eyes removed and cut into quadrants after excising the cornea and removing the lens, vitreous and iris. The retinal quadrants were then gently separated from the pigment epithelium and incubated for 30 min. at 37° C. in BSS to which an agonist or agonist plus antagonist was added. The BSS contained 140 mMNa^+, 5.0 mM K^+, 0.5 mM Ca^++, 4.5 mM Mg^++, 150 mM Cl^-, 5.6 mM glucose and bicarbonate/phosphate buffer (pH 7.3). […]

KA = assay: NMDA/KA antagonist assay in embryo retina: blocking KA neurotoxicity; design: species or system chick embryo; conditions: KA 25 μM, 30 min, 37° C.; tested from 1000 μM downward
Method: as §1

Quis = assay: NMDA/KA antagonist assay in embryo retina: blocking Quis neurotoxicity; design: species or system chick embryo; conditions: Quis 50 μM, 30 min, 37° C.; footnote: @ up to 500 μM
Method: as §1

NMDA [1] = conditions: Anis et al, Br. J. Pharmacol., 79, 565 (1983); cited from earlier work
NMDA [2] = conditions: Berry et al, Eur. J. Pharm., 96, 261-267 (1983); spinal neurones; cited from earlier work
hippocampal neurons [3] = assay: Chronic hypoxic insult assay (MTT neuronal survival); assay type: cell-based, Sprague-Dawley rats
Method: Compound No. 1 was tested for its ability to protect hippocampal neurons from hypoxia-induced cell death. Cultures of hippocampal neurons were prepared from embryonic day 17 Sprague-Dawley rats. The hippocampi were dissociated into a single cell suspension by incubation with 0.25% trypsin, 40 mg/ml DNase followed by gentle trituration through a Pasteur pipet. The cells were plated in a polylysine-coated 96-well plate and maintained in a chemically defined medium until use. The cells were grown for 2 to 3 weeks in 5% CO2 -in-air humidified environment at 36° C. to establish a thick network of neuronal processes with numerous spontaneously active synapses. […] Following 2 hours of exposure to normal O2 tension, the cultures were processed for morphological and quantitive biochemical neuronal cell viability assays.
The neuronal survival assay utilized the compound MTT [(3-(4,5-dimethylthiazol-2-yl)-2,5-diphenyl tetrazolium bromide)], a pale yellow substrate that is cleaved by the mitochondrial enzyme succinate-dehydrogenase to yield a dark blue formazan product. […] The precipitate was then solubilized using 0.08N HCl/isopropanol mixture and the absorbance measured with an ELISA plate reader (Dynatech MR600) using a test wavelength of 570 nm and a reference wavelength of 630 nm. […]

hippocampal neurons [4] = assay: Glutamate neurotoxicity assay (MTT neuronal survival); assay type: cell-based, Sprague-Dawley rats; conditions: for Protection from glutamate toxicity: 500 μM glutamate, 1 hour; for Optical Density (MTT, viable cells): units + SDM, 500 μM glutamate 1 hour, control 0.163, glutamate 0.092
Method: Compound No. 1 was tested for its ability to protect hippocampal neurons from hypoxia-induced cell death. Cultures of hippocampal neurons were prepared from embryonic day 17 Sprague-Dawley rats. The hippocampi were dissociated into a single cell suspension by incubation with 0.25% trypsin, 40 mg/ml DNase followed by gentle trituration through a Pasteur pipet. The cells were plated in a polylysine-coated 96-well plate and maintained in a chemically defined medium until use. The cells were grown for 2 to 3 weeks in 5% CO2 -in-air humidified environment at 36° C. to establish a thick network of neuronal processes with numerous spontaneously active synapses. Exposure to hypoxic/anoxic environment was accomplished by placing the cultures in an anaerobic chamber, and flushing it with a mixture of 95% N2 +5% CO2 gas to rapidly drop the O2 tension to near zero. The O2 tension was maintained at near zero using a disposable H2 +CO2 generator envelope with palladium catalyst. Compound No. 1 was added to the culture medium prior to incubation in the anaerobic chamber and maintained there for 6 hours. Following 2 hours of exposure to normal O2 tension, the cultures were processed for morphological and quantitive biochemical neuronal cell viability assays.
The neuronal survival assay utilized the compound MTT [(3-(4,5-dimethylthiazol-2-yl)-2,5-diphenyl tetrazolium bromide)], a pale yellow substrate that is cleaved by the mitochondrial enzyme succinate-dehydrogenase to yield a dark blue formazan product. This process requires active mitochondria, present only in live cells. Cultures of hippocampal neurons grown in 96-well plates were incubated with 1 mg/ml MTT at 36° C. in a 10% CO2 -in-air incubator for 30-60 min. At the end of the incubation, a dark blue precipitate outlined only viable cells. The precipitate was then solubilized using 0.08N HCl/isopropanol mixture and the absorbance measured with an ELISA plate reader (Dynatech MR600) using a test wavelength of 570 nm and a reference wavelength of 630 nm. The resulting optical density is directly proportional to the number of viable cells.
Compound No. 1 was tested for its ability to protect neurons from glutamate-induced neurotoxicity, which selectively kills mature neurons while sparing glial cells. Neuronal cells were prepared and cell viability assays were performed as described in the chronic hypoxia insult assay, above.
Hippocampal cultures were exposed to 500 μM glutamate for 1 hour either in the presence or absence of Compound No. 1 and immediately thereafter processed for qualitative (morphological) and quantitative viability assay.

hippocampal neurons [5] = assay: Acute azide toxicity assay (MTT neuronal survival); assay type: cell-based, Sprague-Dawley rats
[6] = system: [^3 H]PCP binding sites, rat cerebral cortical membranes; conditions: Goldman et al, FEBS Lett., 170, 333-336 (1985); cited from earlier work

Structure (SMILES)	Stereotyped Behavior ED50 (rats)	Ki (PCP receptors)	Minimal concentration required to provide total protection vs NMA (NMA)	Protection vs KA (KA)	Protection vs Quis (Quis)	other results
c1csc(C2(N3CCCCC3)CCCCC2)c1 [TCP]	56 (49-76) nmol/rat	20 ± 6 nM	–	–	–	–
S=C=Nc1cccc(C2(N3CCCCC3)CCCCC2)c1 [Metaphit, 1-[1-(3-isothiocyanatophenyl)cyclohexyl]piperidine]	–	–	50 µM	No Activity	No Activity	–
CNC1(c2ccccc2Cl)CCCCC1=O (stereo not drawn) [ketamine]	–	–	–	–	–	Reduction of the excitatory effects of NMDA as compared to KA and QUIS (NMDA [1]): reduce selectively the excitatory effects of NMDA
CC1CCC(c2ccccc2)(N2CCCCC2)CC1 (stereo not drawn) [cis-N-(1-phenyl-4-methylcyclohexyl)piperidine]	–	–	–	–	–	Stereoselective effects over isomer counterpart in reducing the excitatory action of NMDA (NMDA [2]): confirmed
C1=CCN(C2(c3cccs3)CCCCC2)CC1 [Compound No. 1, 1-[1-(2-thienyl)-cyclohexyl]-1,2,5,6-tetrahydropyridine]	43 (34-57) nmol/rat	12 ± 2 nM	0.25 µM	Partial @ 5 μM	Zero @ 250 μM	EC (maximum protection) (hippocampal neurons [3]; Rattus norvegicus, Hippocampal neuron, hypoxia 6 hours, read-out: Concentration giving maximum protection of neurons from hypoxic insult): 50 µM; Optical Density (MTT, viable cells) (hippocampal neurons [3]; units + SDM, hypoxia + 50 μM compound, 6 hours, untreated control 0.163, hypoxia 0.062): 0.173 ± .033; Protection from glutamate toxicity (hippocampal neurons [4]; 5 μM compound): significant protection; Protection from glutamate toxicity (hippocampal neurons [4]; 50 μM compound): Nearly complete protection; Optical Density (MTT, viable cells) (hippocampal neurons [4]; 5 μM compound): 0.147 ± .017; Optical Density (MTT, viable cells) (hippocampal neurons [4]; 50 μM compound): 0.157 ± .017; Protection of neurons from sodium azide poisoning (hippocampal neurons [5]; 1 μM compound, 10 μM sodium azide, 1 hour): significant protection; Optical Density (MTT, viable cells) (hippocampal neurons [5]; units + SDM, sodium azide 1 hour + 1 μM compound, control 0.146, sodium azide 0.084): 0.138 ± .013
CC1CCCN(C2(c3ccccc3)CCCCC2)C1 (single isomer, unassigned; (+)) [(+)-PCMP, (+)-1-(1-phenylcyclohexyl)-3-methylpiperidine]	–	–	–	–	–	Stereoselective effects over isomer counterpart in reducing the excitatory action of NMDA (NMDA [2]): confirmed; Inhibition of specific binding of [^3 H]PCP [6]: potent inhibitor
c1ccc(C2(N3CCCCC3)CCCCC2)cc1 [PCP, Phencyclidine]	150 (120-180) nmol/rat	96 ± 15 nM	1 µM	No Activity	No Activity	Time of peak behavioral effect (rats; after i.c.v. administration, 25-20000 nmol/rat): 5 min; Time of peak behavioral effect (rats; after i.p. administration, 2.0-32 mg/kg): 15 min; Reduction of the excitatory effects of NMDA as compared to KA and QUIS (NMDA [1]): reduce selectively the excitatory effects of NMDA

Source: patent US5604255A, “N-(1-thienylcycloalkyl)alkenylamines for treatment of neurotoxic injury” (priority 1994, dated 1997)
